Holding throughout (assay): NCI anticancer screen, dose series, 48 h
The test system of experiment [1] is SK-OV-3 ovarian.
The subject of experiment [2] is SF-295 CNS.
The subject of experiment [3] is LXFL 529 NSCLC.
In experiment [4] the test system is DMS 114 small cell lung.
In experiment [5] the test system is A549 NSCLC.
The test system of experiment [6] is NCI-H460 lung.
Experiment [7] concerns EKVX NSCLC.
Experiment [8] relates to SF-268 CNS.
The subject of experiment [9] is UACC-62 melanoma.
The subject of experiment [10] is PC-3 prostate.

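1) Cells in 96-well plates. 2) Compound, 48 h, 5 concentrations. 3) Linear interpolation between surrounding doses. 4) Unreached endpoint = highest concentration. At the TGI there is no net growth.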

On to `Cc1c(C)c2cc3c(=O)c(CCl)coc3c(C)c2oc1=O`, for which the TGI in [1], in [2], in experiment [3], in experiment [4], in experiment [5] and in [6] was above 100 µM each time. In addition, the TGI in experiment [7], in experiment [8] and in experiment [9] was above 100 µM throughout.
Take `COc1ccc2c(c1OC)C(=O)C2`: the TGI in experiment [1], in experiment [2], in experiment [3], in [4], in experiment [5] and in experiment [6] was above 100 µM each time. The TGI in [7], in experiment [8] and in experiment [9] was above 100 µM each time.
Take `O=C(NCCCN1CCN(CCCNC(=O)c2cccc3ccccc23)CC1)c1cccc2ccccc12`: the TGI was 57.6 µM in experiment [1]; above 100 µM in experiment [2]; above 100 µM in experiment [3]; above 100 µM in experiment [4]; above 100 µM in experiment [5]; above 100 µM in experiment [6]. Besides, the TGI in experiment [7] and in [9] was above 100 µM throughout.
For the compound `O=C(CC1(O)C(=O)Nc2ccccc21)c1ccc(Cl)c(Cl)c1` (centres undefined), the TGI in [1], in experiment [2], in [3], in experiment [4], in [5] and in experiment [6] was above 100 µM in each case. Besides, the TGI in experiment [7], in [8] and in experiment [9] was above 100 µM each time.
Regarding `COc1ccc2[nH]c3c(C)c4c(c(C)c3c2c1)CN(C)C=C4`, the TGI in experiment [1] was determined as 56.6 µM; in experiment [2], 2.7 µM; in [3] it was 3.61 µM; in experiment [4], 3.05 µM; in experiment [5], 23.6 µM; in experiment [6], 11.2 µM. The TGI in [7] was determined as 38.8 µM; in experiment [8] it was 0.815 µM; in experiment [9], 28.1 µM; in experiment [10], 81.3 µM.
On to `S=C1SCC2CCCN12` (centres undefined), for which the TGI in [1], in experiment [2], in experiment [3], in experiment [4], in [5] and in [6] was above 100 µM each time. For the same compound, the TGI in experiment [8] and in experiment [9] was above 100 µM each time.
As to `Cc1nc(-n2nc(-c3ccccc3)cc2-c2ccccc2)sc1C(=O)CC(=O)C(=O)Nc1ccc(Cl)c(Cl)c1`, the TGI in experiment [1], in experiment [2], in experiment [3], in experiment [4], in experiment [5] and in [6] was above 100 µM in each case. The TGI in [7], in experiment [8] and in experiment [9] was above 100 µM in each case.
Consider `CC1=CC(=O)NP(=O)(Oc2ccc(Cl)cc2)N1` (centres undefined), for which the TGI in experiment [1], in experiment [2], in [3], in experiment [4], in experiment [5] and in experiment [6] was above 100 µM throughout. Also, the TGI in [7], in experiment [8] and in [9] was above 100 µM throughout.
Take `COc1ccc2nc3cc(Cl)ccc3c(Nc3ccccc3-c3ccccc3Nc3c4ccc(Cl)cc4nc4ccc(OC)cc34)c2c1`: the TGI is above 100 µM in [1]; above 76.2 µM in experiment [2]; above 50.5 µM in experiment [3]; above 100 µM in [5]; 98.9 µM in [6]; above 100 µM in experiment [7]. Further, the TGI in [8] is above 72.7 µM; in experiment [9], above 66.3 µM; in experiment [10], 63 µM.
With `CC(C)(C)C1=CC(=N/N=c2\scc(-c3ccccc3)n2Cc2ccccc2)C=C(C(C)(C)C)C1=O`, the TGI in experiment [2], in experiment [3], in experiment [4], in experiment [5], in experiment [6] and in [7] was above 100 µM each time. The TGI in experiment [8] and in [9] was above 100 µM each time.
For the compound `CC(=O)OC1(Sc2ccccc2)CC2[C@H]3COC(C)(C)O[C@H]3CC[C@@]2(C)CC1=O` (some centres undefined), the TGI is 95.7 µM in experiment [1]; above 100 µM in [2]; above 100 µM in experiment [3]; above 100 µM in experiment [4]; above 100 µM in experiment [5]; above 100 µM in experiment [6]. Also, the TGI in experiment [7] and in experiment [9] was above 100 µM in each case.
With `CC1(Cl)C(=O)NC(=O)N([C@H]2C[C@H](O)[C@@H](CO)O2)C1N=[N+]=[N-]` (some centres undefined), the TGI in experiment [1], in experiment [2], in [3], in [4], in experiment [5] and in experiment [6] was above 100 µM each time. For the same compound, the TGI in experiment [7], in [8] and in [9] was above 100 µM in each case.
Turning to `O=C(n1c2ccccc2c2n[nH]c(=S)nc21)C(F)(F)F`, the TGI in experiment [1], in experiment [2], in [3], in [4], in [5] and in experiment [6] was above 100 µM each time. The TGI in experiment [7], in [8] and in [9] was above 100 µM each time.

These data come from PubChem BioAssay (NCI).
